Source: ChEMBL document CHEMBL1201862, “PubChem BioAssay data set” (2004)
Where a name gives a salt, the structure may show the parent alone. Calls of active or inactive are those of the source. Rule as the data show it, for most assays here: actives have a measured EC50 and inactives only a lower limit.

How the values were obtained:
[1] = biological target: T1, Corticotropin-releasing factor receptor 2/Corticotropin-releasing factor-binding protein (Homo sapiens, UniProt P24387+Q13324); test: Dose Response confirmation of uHTS hits for small molecule antagonists of the CRF-binding protein and CRF-R2 receptor complex.; format: functional; conditions: read-out: IC50_Mean
T1 sequence (Q13324 whole entry): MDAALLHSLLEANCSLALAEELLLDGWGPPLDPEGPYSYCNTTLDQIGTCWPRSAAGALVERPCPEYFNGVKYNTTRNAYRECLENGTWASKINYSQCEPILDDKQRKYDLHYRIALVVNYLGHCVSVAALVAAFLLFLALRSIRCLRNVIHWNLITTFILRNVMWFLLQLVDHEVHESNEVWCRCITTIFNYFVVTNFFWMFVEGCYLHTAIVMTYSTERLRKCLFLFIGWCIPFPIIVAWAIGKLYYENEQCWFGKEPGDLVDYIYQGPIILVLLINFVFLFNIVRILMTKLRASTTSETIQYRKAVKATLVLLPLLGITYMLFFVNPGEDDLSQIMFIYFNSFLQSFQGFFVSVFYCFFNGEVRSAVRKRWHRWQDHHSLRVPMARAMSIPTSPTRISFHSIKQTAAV
T1 sequence (P24387 whole entry): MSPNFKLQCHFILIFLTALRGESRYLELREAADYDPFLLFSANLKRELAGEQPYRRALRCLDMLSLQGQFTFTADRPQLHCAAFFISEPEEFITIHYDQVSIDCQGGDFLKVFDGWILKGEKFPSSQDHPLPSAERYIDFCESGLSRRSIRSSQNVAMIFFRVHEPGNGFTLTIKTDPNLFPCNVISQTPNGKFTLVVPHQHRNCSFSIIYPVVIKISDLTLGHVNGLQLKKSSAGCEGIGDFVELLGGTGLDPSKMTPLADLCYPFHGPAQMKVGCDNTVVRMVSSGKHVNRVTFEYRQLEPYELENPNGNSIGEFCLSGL

[2] = biological target: T1, Corticotropin-releasing factor receptor 2/Corticotropin-releasing factor-binding protein; test: activators of CRF receptor 2 with binding protein – uHTS hits, confirmation (AID 602473); format: functional; conditions: read-out: EC50_Mean
Streptococcus = test: GAS UMAA2166 growth inhibition – luminescence, BacTiterGlo, counter-screen for streptokinase expression inhibitor project, dose response (AID 1915); format: functional, organism-based;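 also: potency for reduction of bacterial viability or growth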
Streptokinase A = biological target: T2, Streptokinase A (Streptococcus pyogenes serotype M1, UniProt P10520); test: viability-normalized secreted streptokinase activity reduction – plasminogen activation absorbance, OD405, dose response (AID 1914); format: functional, Streptococcus pyogenes M1 GAS;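 also: secreted streptokinase activity via plasminogen activation per viability signal from cell pellet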
T2 sequence (P10520 whole entry): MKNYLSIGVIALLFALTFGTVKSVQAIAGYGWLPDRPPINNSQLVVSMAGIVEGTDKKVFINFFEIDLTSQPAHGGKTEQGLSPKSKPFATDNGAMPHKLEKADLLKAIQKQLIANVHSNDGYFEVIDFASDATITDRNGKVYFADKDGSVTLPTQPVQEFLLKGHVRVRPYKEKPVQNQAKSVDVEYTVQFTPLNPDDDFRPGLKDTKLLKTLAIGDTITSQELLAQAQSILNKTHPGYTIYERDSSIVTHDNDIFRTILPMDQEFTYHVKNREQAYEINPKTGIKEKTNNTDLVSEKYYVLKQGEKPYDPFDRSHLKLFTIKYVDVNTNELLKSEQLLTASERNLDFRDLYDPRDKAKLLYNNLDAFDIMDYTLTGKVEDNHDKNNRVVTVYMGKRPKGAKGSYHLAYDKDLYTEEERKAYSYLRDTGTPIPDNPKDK

[3] = system: Streptococcus sp. 'group A'; test: Streptococcus pyogenes SK(-)GAS viability under kanamycin – luminescence, BacTiterGlo, confirmation, counter-screen for streptokinase expression inhibitor project, dose response (AID 1900); format: functional, organism-based
[4] = non-specific 3'UTR reporter inhibition in Clone20-Shn3RL – cell-based, Renilla luciferase, cherry-picked, counter-screen for Shn3 inhibitor project, dose response (AID 624133); format: functional
[5] = reduction of Shn3 3'UTR-driven luciferase in osteoblasts – cell-based, Clone20 osteoblasts, firefly luciferase, cherry-picked, dose response (AID 624132); format: functional;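 also: firefly luciferase luminescence from reporter carrying the Shn3 3'UTR in osteoblasts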
[6] = NIH-3T3 fibroblast cytotoxicity, dose response, cytotoxicity control, cell-based, fluorescence, Alamar Blue, secondary assay (AID 2327); format: functional;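 also: NIH-3T3 mouse fibroblasts cultured with fluconazole at 8 µg/mL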
[7] = fluconazole-exposed Candida albicans growth modulators – fluorescence, retest, confirmation (AID 2467); format: functional, cell-based
[8] = loss of viability in HepG2 cells – cell-based, CellTiter-Glo, cherry-picked, cytotoxicity control for Shn3 inhibitor project, dose response (AID 624134); format: functional
[9] = Luminescence Cell-Based Dose Retest to Confirm Inhibitors of Cancer Stem Cells. [Related pubchem assays (depositor defined):AID2717, AID2721]; format: functional; conditions: Homo sapiens
[10] = luciferase reporter signal suppression in cells – H4 neuroglioma cells, luminescence, dose response (AID 1990); format: functional, cell-based
[11] = Luminescence Cell-Based Dose Response HTS to Identify Inhibitors of 5'UTR Stem-Loop Driven Prion Protein mRNA Translation in H4 Neuroglioblastoma Cells. [Related pubchem assays: 1827 (Project Summary), 1813 (Primary HTS)]; format: functional
[12] = alpha-synuclein stem-loop luciferase translation blockers – H4 neuroglioma cells, luminescence, confirmation (AID 1988); format: functional, cell-based
[13] = biological target: T3, Heat shock factor protein 1 (Mus musculus, UniProt P38532); test: enhancement of HSF1-driven luciferase signal – cell-based, NIH3T3, luminescence, dose retest, confirmation (AID 435004); format: functional;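 also: stress induced by proteasome inhibitor MG132 added 30 min after compound; luciferase reporter driven by HSF1 response element in NIH3T3 cells; actives raise luminescence as potentiators of the MG132 stress response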
T3 sequence (P38532 whole entry): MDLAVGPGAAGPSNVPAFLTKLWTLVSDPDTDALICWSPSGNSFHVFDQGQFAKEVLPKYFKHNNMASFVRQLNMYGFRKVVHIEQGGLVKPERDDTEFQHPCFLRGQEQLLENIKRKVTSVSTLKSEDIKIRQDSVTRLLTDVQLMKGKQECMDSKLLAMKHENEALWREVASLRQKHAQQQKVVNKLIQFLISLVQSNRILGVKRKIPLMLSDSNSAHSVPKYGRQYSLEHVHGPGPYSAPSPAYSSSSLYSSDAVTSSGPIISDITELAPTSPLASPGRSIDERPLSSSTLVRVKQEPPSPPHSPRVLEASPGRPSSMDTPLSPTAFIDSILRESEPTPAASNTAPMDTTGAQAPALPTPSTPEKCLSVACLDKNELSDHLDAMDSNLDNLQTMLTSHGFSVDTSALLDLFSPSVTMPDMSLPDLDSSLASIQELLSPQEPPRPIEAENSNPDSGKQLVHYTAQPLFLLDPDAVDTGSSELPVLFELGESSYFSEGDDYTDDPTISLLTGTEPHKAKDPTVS

INS1 = test: INS-1E survival protection against cytokine death – cell-based, luminescence, retest, dose response (AID 449756); format: functional; conditions: Rattus norvegicus;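 also: cell death triggered by IL-1 beta plus TNF-alpha plus IFN-gamma mixture; protective hits raise ATP signal compared with cytokine alone wells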
[14] = biological target: T3, Heat shock factor protein 1; test: decrease of HSF1-responsive luciferase luminescence – cell-based, NIH3T3, dose retest, confirmation (AID 2382); format: functional;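 also: NIH3T3 fibroblasts with HSF1-driven luciferase reporter stressed by proteasome inhibitor MG132; luminescence from HSF1-driven luciferase expression after 8 hours of MG132 stress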

## COC(=O)CC(NC(=O)c1ccc(C)cc1)c1ccc2c(c1)OCO2 (configuration not stated)
[1]
  IC50: > 47.1 µM (inactive)
[2]
  EC50: > 53 µM (inactive)

## C=CCN1C(=O)NC(=O)/C(=C(/CC)Nc2ccccc2NC(=O)CC)C1=O
[1]
  IC50: > 47.1 µM (inactive)
[2]
  EC50: > 53 µM (inactive)

## CCc1nc2c3cnn(-c4cc(Cl)ccc4C)c3ncn2n1
Streptococcus
  EC50: > 150 µM (not active)
Streptokinase A
  EC50: > 150 µM (not active)
[3]
  EC50: > 150 µM (not active)

## CC12CC(O)C3c4ccc(O)cc4CCC3C1CCC2=O (configuration not stated)
[4]
  AC50: 26.8 µM (active)
[5]
  AC50: > 70 µM (inactive)

## O=C(N/N=C/c1cc(Br)c(Br)o1)c1ccc2c(c1)OCCO2
[6]
  EC50: > 150 µM (inconclusive)
[7]
  EC50: 3.24 µM (active)

## CC1(C)CC(=O)C2=C(C1)N(Cc1ccco1)C(=O)C2(O)C(F)(F)F (configuration not stated)
[1]
  IC50: > 47.1 µM (inactive)
[2]
  EC50: > 53 µM (inactive)

## COc1ccc2nc(N3C(=O)CNC3=S)sc2c1
Streptococcus
  EC50: > 150 µM (not active)
Streptokinase A
  EC50: > 150 µM (not active)
[3]
  EC50: 3.47 µM (active)

## COCCCNC(=S)NNC(=S)Nc1cccc(Cl)c1
Streptokinase A
  EC50: > 150 µM (not active)

## CC[C@H](C)[C@H]1O[C@]2(CC[C@@H]1C)C[C@@H]1C[C@@H](CC=C(C)[C@@H](O[C@H]3C[C@H](OC)[C@@H](O[C@H]4C[C@H](OC)[C@@H](O)[C@H](C)O4)[C@H](C)O3)[C@@H](C)C=CC=C3CO[C@@H]4[C@H](O)C(C)=C[C@@H](C(=O)O1)[C@]34O)O2
[8]
  AC50: 31.2 µM (active)
[4]
  AC50: 20.3 µM (active)
[9]
  AC50: 1.22 µM (active)
[5]
  AC50: 6.32 µM (active)

## CCO/C(O)=C1\C(C)=Nc2nc3ccccc3n2C1c1ccncc1 (configuration not stated)
[10]
  EC50: > 120 µM (not active)
[11]
  EC50: > 120 µM (not active)
[12]
  EC50: > 120 µM (not active)
[13]
  EC50: > 260 µM (inactive)

## CCOc1ncccc1C(=O)NCCc1c[nH]c2ccccc12
[13]
  EC50: > 260 µM (inactive)

## Cc1cc(F)ccc1NCc1cc2c(cc1[N+](=O)[O-])OCO2
[13]
  EC50: > 260 µM (inactive)

## COc1ccc(-c2cn3cc(C)ccc3n2)cc1OC
[13]
  EC50: > 260 µM (inactive)

## Cc1csc(NC(=O)c2c(O)c3c(n(CC(C)C)c2=O)CCCC3)n1
Streptococcus
  EC50: 17.3 µM (active)
Streptokinase A
  EC50: > 150 µM (not active)
[3]
  EC50: 11 µM (active)

## CCCCCCCCCc1nc2sc3c(c2c(=O)n1NC(=O)c1ccc([N+](=O)[O-])cc1)CC(C)(C)OC3
Streptococcus
  EC50: 39.8 µM (active)
Streptokinase A
  EC50: 2.17 µM (active)
[3]
  EC50: 3.71 µM (active)

## Cn1cc([N+](=O)[O-])c(C(=O)Nc2ccc(-c3nc4ccccc4[nH]3)cc2)n1
[13]
  EC50: 32 µM (active)

## CCOC(=O)c1ccc(NC(=O)c2sc3nc4n(c(=O)c3c2C)CCC4)cc1
Streptococcus
  EC50: 20.2 µM (active)
Streptokinase A
  EC50: > 150 µM (not active)
[3]
  EC50: 1.48 µM (active)

## O=[N+]([O-])c1cc2c(c(CSc3nnc(Nc4ccccc4)s3)c1)OCOC2
[8]
  AC50: 55.6 µM (active)
[4]
  AC50: 9.43 µM (active)
[5]
  AC50: 3.62 µM (active)

## COCC1CCCCN1C(=O)c1cc(COc2ccc3ncccc3c2)on1 (configuration not stated)
[8]
  AC50: 28.9 µM (active)
INS1
  AC50: 3.15 µM (active)
[4]
  AC50: 3.12 µM (active)
[14]
  EC50: > 195 µM (not active)
[5]
  AC50: 0.33 µM (active)

## Cc1ccc(CN2CC(C(=O)Nc3nnc(SCc4c(Cl)cccc4Cl)s3)CC2=O)cc1 (configuration not stated)
Streptococcus
  EC50: 37.2 µM (active)
Streptokinase A
  EC50: 5.57 µM (active)
[3]
  EC50: 4.07 µM (active)

## CN(C/C=C/C#CC(C)(C)C)Cc1cccc2ccccc12 [TERBINAFINE HYDROCHLORIDE]
[6]
  EC50: > 160 µM (inactive)
[7]
  EC50: 2.94 µM (inconclusive)

## CCOC(=O)c1cc(C#N)c(N2CCN(c3ccc(OC)cc3)CC2)nc1O
[6]
  EC50: > 150 µM (inconclusive)
[7]
  EC50: 0.046 µM (active)

## Cc1ccc2[nH]c(SCC(=O)NCc3ccc(F)cc3)nc2c1
[13]
  EC50: > 260 µM (inactive)

## COc1cc(OC)cc(C(=O)Nc2nnc(NC(=S)Nc3ccccc3)s2)c1
Streptokinase A
  EC50: > 150 µM (not active)

## Cc1ccc(S(=O)(=O)N2CCN(c3ncnc4sccc34)CC2)cc1
[8]
  AC50: 6.76 µM (active)
INS1
  AC50: 5.64 µM (active)
[4]
  AC50: 5.22 µM (active)
[5]
  AC50: 2.72 µM (active)

## CCC1(c2ccc(F)cc2)NC(=O)N(CC(=O)N2CCc3ccccc32)C1=O (configuration not stated)
[2]
  EC50: 11 µM (active)

## O=C(NCc1cccnc1)c1ccc(-c2ccc(F)c(F)c2)c2ccoc12
[8]
  AC50: 6.48 µM (active)
[4]
  AC50: 4.19 µM (active)
[5]
  AC50: 3.48 µM (active)

## O=C(NCCNC(=O)C(c1ccccc1)c1ccccc1)c1ccco1
[6]
  EC50: > 150 µM (inactive)
[7]
  EC50: > 38 µM (not active)

## Cc1cccc(C)c1OC1(c2ccccc2)OC(=O)c2ccccc21 (configuration not stated)
Streptococcus
  EC50: > 150 µM (not active)
Streptokinase A
  EC50: 12.2 µM (active)
[3]
  EC50: 18.4 µM (active)

## COc1ccc(NP(=O)(Oc2ccc(Cl)cc2)Oc2ccc(Cl)cc2)cc1OC
Streptococcus
  EC50: 16.3 µM (active)
Streptokinase A
  EC50: 21.1 µM (active)
[3]
  EC50: 12.4 µM (active)

## NC(=O)CCN1CCN(CCOC2Cc3cc(Cl)ccc3Sc3ccccc32)CC1 (configuration not stated)
[13]
  EC50: > 260 µM (inactive)
